Measured values from patent US9278922B2 (ABBVIE INC., priority 2009, dated 2016).

Tested on: HCV 1b-Con-1 replicon
Assay: HCV 1b-Con-1 replicon assay (luciferase reporter gene, HuH-7 cells)
Type: cell-based, Hepatitis C virus (HCV) genotype 1b-Con1
Details: Hepatitis C virus, Huh-7, luciferase reporter gene activity in the replicon, in the presence of 5% FBS

Row | SMILES | EC50 [nM]
1 | COC(=O)N[C@H](C(=O)N1CCC[C@H]1C(=O)Nc1ccc(CN(Cc2ccc(NC(=O)[C@@H]3CCCN3C(=O)[C@H](N)c3ccccc3)cc2)c2ccccc2)cc1)C(C)(C)C [Example 77, N-(methoxycarbonyl)-3-methyl-L-valyl-N-[4-({[4-({1-[(2R)-2-amino-2-phenylacetyl]-L-proly}amino)benzyl](phenyl)amino}methyl)phenyl]-L-prolinamide] | < 1
2 | O=C(Nc1ccc(CN(Cc2ccc(NC(=O)[C@@H]3CCCN3C(=O)[C@H](O)c3ccccc3)cc2)c2ccc(F)cc2)cc1)[C@@H]1CCCN1C(=O)[C@H](O)c1ccccc1 [Example 110, (2S ,2′S)-N,N′-{[(4-fluorophenyl)imino]bis(methanediylbenzene-4,1-diyl)}bis{1-[(2R)-2-hydroxy-2-phenylacetyl]pyrrolidine-2-carboxamide}] | < 1
3 | CCN(CC)[C@@H](C(=O)N1CCC[C@H]1c1nc2cc(CN(Cc3ccc4[nH]c([C@@H]5CCCN5C(=O)[C@@H](c5ccccc5)N(CC)CC)nc4c3)c3ccccc3)ccc2[nH]1)c1ccccc1 [Example 65, N,N-bis[(2-{(2S)-1-[(2R)-2-(diethylamino)-2-phenylacetyl]pyrrolidin-2-yl}-1H-benzimidazol-5-yl)methyl]aniline] | < 1
